Data from patent US12247032B2, “Substituted pyrazolo[1,5-a]pyrimidines as inhibitors of JAK kinases” (Genentech, Inc., priority 2019, dated 2025).

Biological target: T1, Recombinant human JAK2 kinase domain protein (Residues 812-1132) (Homo sapiens, UniProt O60674)
T1 construct: human JAK2 kinase domain protein (Residues 812-1132); made in house; host or cells: insect cells
Experiment: JAK2 biochemical assay (microfluidic mobility shift, peptide phosphorylation)
Conditions: 25 μM ATP, 0.2 nM total JAK2; Ki calculated from Ki app (tight-binding, competitive); read-out: Biochem JAK2 Ki
In short: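 Insect-cell-expressed human JAK1 (1 nM, residues 854-1154) or JAK2 (0.2 nM, residues 812-1132) phosphorylating 1.5 μM 5-FAM peptide Y-1B with 25 μM ATP, pH 7.2 HEPES, 30 min at 22-23 °C; twelve concentrations up to 1000 nM in duplicate. Mobility-shift % conversion fitted to tight-binding quadratic for Ki^app.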

T1 sequence (O60674 812-1132): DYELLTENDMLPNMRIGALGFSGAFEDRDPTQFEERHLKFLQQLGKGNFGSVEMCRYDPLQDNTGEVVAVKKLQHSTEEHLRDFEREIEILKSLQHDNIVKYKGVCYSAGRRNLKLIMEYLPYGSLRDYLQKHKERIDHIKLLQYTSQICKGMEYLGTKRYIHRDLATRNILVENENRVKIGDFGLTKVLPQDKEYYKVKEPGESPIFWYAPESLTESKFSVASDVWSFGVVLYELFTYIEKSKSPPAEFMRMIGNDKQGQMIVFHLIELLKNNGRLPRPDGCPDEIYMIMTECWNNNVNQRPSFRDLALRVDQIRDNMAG

Row | Compound | Ki
1 | CN1CC(n2nnc(Cn3cc(NC(=O)c4cnn5cccnc45)c(-c4cc(Cl)ccc4OC(F)F)n3)n2)C1 [Example 7, N-[3-[5-chloro-2-(difluoromethoxy)phenyl]-1-[[2-(1-methylazetidin-3-yl)tetrazol-5-yl]methyl]pyrazol-4-yl]pyrazolo[1,5-a]pyrimidine-3-carboxamide] | 170 pM
2 | CN1CC(N2CC(n3nnc(Cn4cc(NC(=O)c5cnn6cccnc56)c(-c5cc(OC(F)F)ccc5OC(F)F)n4)n3)C2)C1 [Example 78, N-[3-[2,5-bis(difluoromethoxy)phenyl]-1-[[2-[1-(1-methylazetidin-3-yl)azetidin-3-yl]tetrazol-5-yl]methyl]pyrazol-4-yl]pyrazolo[1,5-a]pyrimidine-3-carboxamide; formic acid] | 410 pM
3 | O=C(Nc1cn(Cc2nnnn2C2CNC2)nc1-c1cc(OC(F)F)ccc1OC(F)F)c1cnn2cccnc12 [Example 12, N-[1-[[1-(azetidin-3-yl)tetrazol-5-yl]methyl]-3-[2,5-bis(difluoromethoxy)phenyl]pyrazol-4-yl]pyrazolo[1,5-a]pyrimidine-3-carboxamide] | 180 pM
4 | CSc1ccc(OC(F)F)c(-c2nn(Cc3nnn(C4CN(CCCN(C)C)C4)n3)cc2NC(=O)c2cnn3cccnc23)c1 [Example 58, N-[3-[2-(difluoromethoxy)-5-methylsulfanyl-phenyl]-1-[[2-[1-[3-(dimethylamino)propyl]azetidin-3-yl]tetrazol-5-yl]methyl]pyrazol-4-yl]pyrazolo[1,5-a]pyrimidine-3-carboxamide] | 380 pM
5 | NCCn1nnc(Cn2cc(NC(=O)c3cnn4cccnc34)c(-c3cc(OC(F)F)ccc3OC(F)F)n2)n1 [Example 13, N-[1-[[2-(2-aminoethyl)tetrazol-5-yl]methyl]-3-[2,5-bis(difluoromethoxy)phenyl]pyrazol-4-yl]pyrazolo[1,5-a]pyrimidine-3-carboxamide] | 160 pM
6 | CN(C)CCN1CC(n2nnc(Cn3cc(NC(=O)c4cnn5cccnc45)c(-c4cc(OC(F)F)ccc4OC(F)F)n3)n2)C1 [Example 21, N-[3-[2,5-bis(difluoromethoxy)phenyl]-1-[[2-[1-[2-(dimethylamino)ethyl]azetidin-3-yl]tetrazol-5-yl]methyl]pyrazol-4-yl]pyrazolo[1,5-a]pyrimidine-3-carboxamide] | 390 pM
7 | CN(C)CCn1nnnc1Cn1cc(NC(=O)c2cnn3cccnc23)c(-c2cc(OC(F)F)ccc2OC(F)F)n1 [Example 17, N-[3-[2,5-bis(difluoromethoxy)phenyl]-1-[[1-[2-(dimethylamino)ethyl]tetrazol-5-yl]methyl]pyrazol-4-yl]pyrazolo[1,5-a]pyrimidine-3-carboxamide] | 230 pM
8 | CN(C)CCN1CCC(n2nnc(Cn3cc(NC(=O)c4cnn5cccnc45)c(-c4cc(OC(F)F)ccc4OC(F)F)n3)n2)CC1 [Example 61, N-[3-[2,5-bis(difluoromethoxy)phenyl]-1-[[2-[1-[2-(dimethylamino)ethyl]-4-piperidyl]tetrazol-5-yl]methyl]pyrazol-4-yl]pyrazolo[1,5-a]pyrimidine-3-carboxamide] | 520 pM
9 | CN1CCC(n2nnc(Cn3cc(NC(=O)c4cnn5cccnc45)c(-c4cc(OC(F)F)ccc4OC(F)F)n3)n2)CC1 [Example 22] | 300 pM
10 | CN(C)CCN1CC(n2nnc(Cn3cc(NC(=O)c4cnn5cccnc45)c(-c4cc(Cl)ccc4OC(F)F)n3)n2)C1 [Example 37, N-[3-[5-chloro-2-(difluoromethoxy)phenyl]-1-[[2-[1-[2-(dimethylamino)ethyl]azetidin-3-yl]tetrazol-5-yl]methyl]pyrazol-4-yl]pyrazolo[1,5-a]pyrimidine-3-carboxamide] | 360 pM
11 | CN1CC(n2nnc(Cn3cc(NC(=O)c4cnn5cccnc45)c(-c4cc(OC(F)F)ccc4OC(F)F)n3)n2)C1 [Example 10, N-[3-[2,5-bis(difluoromethoxy)phenyl]-1-[[2-(1-methylazetidin-3-yl)tetrazol-5-yl]methyl]pyrazol-4-yl]pyrazolo[1,5-a]pyrimidine-3-carboxamide] | 240 pM
12 | NCCn1nnnc1Cn1cc(NC(=O)c2cnn3cccnc23)c(-c2cc(OC(F)F)ccc2OC(F)F)n1 [Example 14, N-[1-[[1-(2-aminoethyl)tetrazol-5-yl]methyl]-3-[2,5-bis(difluoromethoxy)phenyl]pyrazol-4-yl]pyrazolo[1,5-a]pyrimidine-3-carboxamide] | 120 pM
13 | CN1CC(n2nnc(Cn3cc(NC(=O)c4cnn5cccnc45)c(-c4cc(C5CC5)ccc4OC(F)F)n3)n2)C1 [Example 23, N-[3-[5-cyclopropyl-2-(difluoromethoxy)phenyl]-1-[[2-(1-methylazetidin-3-yl)tetrazol-5-yl]methyl]pyrazol-4-yl]pyrazolo[1,5-a]pyrimidine-3-carboxamide] | 240 pM
14 | CN(CCN1CC(n2nnc(Cn3cc(NC(=O)c4cnn5cccnc45)c(-c4cc(OC(F)F)ccc4OC(F)F)n3)n2)C1)C(=O)OC(C)(C)C [Example 31, tert-butyl N-[2-[3-[5-[[3-[2,5-bis(difluoromethoxy)phenyl]-4-(pyrazolo[1,5-a]pyrimidine-3-carbonylamino)pyrazol-1-yl]methyl]tetrazol-2-yl]azetidin-1-yl]ethyl]-N-methyl-carbamate] | 250 pM
15 | O=C(Nc1cn(Cc2nnn(C3CNC3)n2)nc1-c1cc(OC(F)F)ccc1OC(F)F)c1cnn2cccnc12 [Example 11, N-[1-[[2-(azetidin-3-yl)tetrazol-5-yl]methyl]-3-[2,5-bis(difluoromethoxy)phenyl]pyrazol-4-yl]pyrazolo[1,5-a]pyrimidine-3-carboxamide] | 270 pM
16 | CN(C)[C@H]1C[C@H](N2CC(n3nnc(Cn4cc(NC(=O)c5cnn6cccnc56)c(-c5cc(OC(F)F)ccc5OC(F)F)n4)n3)C2)C1 [Example 70, N-[3-[2,5-bis(difluoromethoxy)phenyl]-1-[[2-[1-[3-(dimethylamino)cyclobutyl]azetidin-3-yl]tetrazol-5-yl]methyl]pyrazol-4-yl]pyrazolo[1,5-a]pyrimidine-3-carboxamide] | 540 pM
17 | O=C(Nc1cn(Cc2nnn(C3CCNCC3)n2)nc1-c1cc(OC(F)F)ccc1OC(F)F)c1cnn2cccnc12 [Example 18, N-[3-[2,5-bis(difluoromethoxy)phenyl]-1-[[2-(4-piperidyl)tetrazol-5-yl]methyl]pyrazol-4-yl]pyrazolo[1,5-a]pyrimidine-3-carboxamide] | 430 pM
18 | CN(C)CCn1nnc(Cn2cc(NC(=O)c3cnn4cccnc34)c(-c3cc(OC(F)F)ccc3OC(F)F)n2)n1 [Example 16, N-[3-[2,5-bis(difluoromethoxy)phenyl]-1-[[2-[2-(dimethylamino)ethyl]tetrazol-5-yl]methyl]pyrazol-4-yl]pyrazolo[1,5-a]pyrimidine-3-carboxamide] | 270 pM
19 | CN1CC(n2nnnc2Cn2cc(NC(=O)c3cnn4cccnc34)c(-c3cc(Cl)ccc3OC(F)F)n2)C1 [Example 15, N-[3-[5-chloro-2-(difluoromethoxy)phenyl]-1-[[1-(1-methylazetidin-3-yl)tetrazol-5-yl]methyl]pyrazol-4-yl]pyrazolo[1,5-a]pyrimidine-3-carboxamide] | 92 pM
20 | CNCCn1nnnc1Cn1cc(NC(=O)c2cnn3cccnc23)c(-c2cc(OC(F)F)ccc2OC(F)F)n1 [Example 19, N-[3-[2,5-bis(difluoromethoxy)phenyl]-1-[[1-[2-(methylamino)ethyl]tetrazol-5-yl]methyl]pyrazol-4-yl]pyrazolo[1,5-a]pyrimidine-3-carboxamide] | 150 pM
